Tests used:
collagen peptide [1] = assay: Coprecipitation of black tea components with collagen peptide, reverse-phase chromatography; type: binding, pig; conditions: black tea A 200 ml + collagen peptide 5 g, FIG. 7B
Experimental: (§1) Collagen peptide (dry powder of the pig skin-derived collagen hydrolysate, the average molecular weight: 3000-5000, manufactured by Nippi, Inc.) was dissolved in water so that the specified concentration is achieved.
To black tea A (200 ml), collagen peptide (5 g) was added and mixed; the supernatant and precipitate were separated by centrifuging (10,000×g, for 10 minutes) (Example 6). To determine the components, of the black tea A before the addition of the collagen peptide (FIG. 7A), the supernatant after centrifuging (FIG. 7B), and the precipitate solubilized with SDS (FIG. 7C), were analyzed by reverse-phase chromatography (column: Cosmosil 5C18-AR-II (manufactured by Nacalai Tesque, Inc.), mobile phase: 0.1% formic acid-containing acetonitrile, detection: 215 nm, 280 nm), respectively.

collagen peptide [2] = assay: Complex formability of theaflavins and epicatechin with collagen peptide (total Hyp in supernatant / complex); type: binding, pig; conditions: catechin 0.2 μmol in 1 ml
Experimental: as §1
A supernatant was obtained by adding the triple volume (v/v) of ethanol to the aqueous solution and centrifuging (10,000×g, 15 min). The supernatant was hydrolyzed with hydrochloric acid (under reduced pressure, 150° C., and 1 hour). After the PITC treatment, the amount of PTC-Hyp (=the total amount of Hyp in the solution) was determined by carrying out reverse-phase chromatography (column: LiChroCART 250-4 (manufactured by Merck)). The amount of PTC-Hyp (=the amount of free Hyp) was determined by carrying out the PITC treatment/reverse-phase chromatography for the supernatant without hydrochloric acid hydrolysis.
The respective aqueous solutions of theaflavins and epicatechin (1 mg/ml) and collagen peptide aqueous solution (200 mg/ml) were prepared, and they were raised at room temperature so that the below-described contents are attained. In the test examples of the present patent application, the following reagents were used.
After mixing, the supernatant and precipitate were separated by centrifuging (8,000×g, […]). According to Method 4, the total amount of Hyp was determined for the supernatant (=“the total amount of Hyp in the supernatant”). “The total amount of Hyp in the complex” was calculated by subtracting “the total amount of Hyp in the supernatant” from the amount of collagen peptide used in the above reaction (2 mg or 10 mg).

Row | Molecule | fate of black tea component in the supernatant after mixing with collagen peptide and centrifuging (collagen peptide [1]) | Total Hyp in the complex (%) (collagen peptide [2]; Collagen peptide 2 mg) | Total Hyp in the supernatant (%) (collagen peptide [2]; Collagen peptide 2 mg) | Total Hyp in the complex (%) (collagen peptide [2]; Collagen peptide 10 mg) | Total Hyp in the supernatant (%) (collagen peptide [2]; Collagen peptide 10 mg)
1 | O=C(O[C@@H]1Cc2c(O)cc(O)cc2O[C@@H]1c1ccc(O)c(O)c1)c1cc(O)c(O)c(O)c1 [epicatechin gallate] | remained mostly in the supernatant | – | – | – | –
2 | O=C(O[C@@H]1Cc2c(O)cc(O)cc2O[C@@H]1c1cc(=O)c(O)c2c(O)c(O)cc([C@H]3Oc4cc(O)cc(O)c4C[C@H]3O)c2c1)c1cc(O)c(O)c(O)c1 [Example 9, theaflavin-3-gallate] | disappeared from the supernatant | 87.0% | 13.0% | 86.6% | 13.4%
3 | O=C(O[C@@H]1Cc2c(O)cc(O)cc2O[C@@H]1c1cc(O)c(O)c(O)c1)c1cc(O)c(O)c(O)c1 [epigallocatechin gallate] | remained mostly in the supernatant | – | – | – | –
4 | O=c1c(O)cc([C@H]2Oc3cc(O)cc(O)c3C[C@H]2O)cc2c([C@H]3Oc4cc(O)cc(O)c4C[C@H]3O)cc(O)c(O)c12 [Example 8, theaflavin] | disappeared from the supernatant | 86.5% | 13.5% | 83.8% | 16.2%
5 | theaflavin-3′-gallate [Example 10] | disappeared from the supernatant | 97.7% | 2.3% | 90.5% | 9.5%
6 | theaflavin-3,3′-digallate [Example 11] | disappeared from the supernatant | 98.0% | 2.0% | 97.8% | 2.2%
7 | Cn1c(=O)c2c(ncn2C)n(C)c1=O [caffeine] | remained mostly in the supernatant | – | – | – | –
